From publication PMC13280021, “Collateral hypersensitivity between ZY19489 and piperaquine neutralizes PfCRT-mediated drug efflux and Plasmodium falciparum resistance” (Nature Communications, 2025) come the findings set out here.

Like-named read-outs stand apart in the source and are kept apart here.

The test system of test [1] is T1, Plasmodium falciparum Dd2^Dd2crt.
T1 construct: Dd2
The experiment in a line: microbe, parasite or virus in culture. The note with it: DD2, Erythrocyte, 72 h. Details: species or system P. falciparum in human red blood cells; asexual blood stage growth inhibition, flow cytometry with SYBR Green I and MitoTracker Deep Red. On the procedure: Susceptibility to all drugs tested in this study was measured by incubating asynchronous, ABS parasites plated at 0.2% to 0.3% parasitemia (or 0.8% for the poorly growing ZY19489-resistant lines harboring the pfcrt N246H allele) and 1% hematocrit at 37 °C in 96-well plates. The assays were set up across a range of drug concentrations with two-fold dilutions. For the experiments testing for susceptibility of recrudescent parasite lines that emerged in humanized NSG mice to ZY19489, M5717, MMV693183, or ferroquine, parasites were cultured at 2% hematocrit in human O^+ or A^+ RBCs in RPMI-1640 media, supplemented with 25 mM HEPES (Fisher), 50 mg/L hypoxanthine (Sigma Aldrich), 2 mM L-glutamine (Cambridge Isotope Laboratories, Inc.), 0.21% sodium bicarbonate (Sigma Aldrich), 0.5% (w/v) Albumax (Invitrogen), 8% filtered, heat-inactivated, pooled off-the-clot AB^+ human serum (Interstate Blood Bank or New York Blood Center), and 10 μg/mL gentamicin (Fisher). The parental P. falciparum Pf3D7^0087/N9 strain that has been adapted to proliferate in this humanized NSG mouse model was cultured in parallel as the drug-sensitive control strain. All compound susceptibility assays for the recrudescent lines and parental control strain were performed using 8% serum-containing medium. Parasite growth in each well was assessed after 72 h using flow cytometry of cultures stained with SYBR Green I and MitoTracker Deep Red (Supplementary Fig. S12). IC50 and IC90 values were derived from growth inhibition data using nonlinear regression analysis (GraphPad Prism 7) or linear interpolation (assays for recrudescent lines from humanized mice). Unless otherwise stated, assays were performed on four independent occasions with technical duplicates, and statistical comparisons were made using two-tailed Mann–Whitney U tests. Gated RBCs 97.0% Live parasites 3.80% A B Forward scatter (FSC-H) MitoTracker Deep Red Supplementary Fig. 12: Gating strategy for flow cytometry-based quantification of P. falciparum asexual blood stage parasite proliferation in drug susceptibility and growth rate assays. Intra-erythrocytic parasites were seeded at 0.3% - 0.8% parasitemia and 1% hematocrit for 72 hours in the presence of a range of drug concentrations that had been 2-fold serially diluted in duplicates along with drug-free controls. Cells were then labeled with 1× SYBR Green (Invitrogen) and 100 nM MitoTracker Deep Red FM (Invitrogen) as nuclear stain and vital dyes, respectively. Parasite survival was assessed by flow cytometry on an Intellicyt iQue3 (Essen Bioscience). Between 9,000 and 15,000 events were counted per sample. […] (A) Forward (FSC-H) and side scatter (SSC-H) gating of the total red blood cell (RBC) population, representing 97.0% of the total events counted. (B) Gating strategy used to quantify viable intracellular parasites, which are positively stained by both MitoTracker Deep Red and SYBR Green I and appear as events in the upper right gate (live parasites, 3.80% parasitemia). Uninfected erythrocytes appear in the lower left gate as MitoTracker Deep Red and SYBR Green I negative populations.

Test [2] concerns the target T2, P. falciparum chloroquine resistance transporter (PfCRT), 7G8 + F145I isoform (Plasmodium falciparum, UniProt W7FI62, F145I).
T2 construct: gene CRT; purified PfCRT 7G8 + F145I reconstituted in proteoliposomes
The experiment in a line: […] [3H]PPQ uptake in PfCRT proteoliposomes. It counts as biochemical.

Test [3] concerns the target T3, P. falciparum chloroquine resistance transporter (PfCRT), 7G8 isoform (Plasmodium falciparum, UniProt W7FI62).
T3 construct: gene CRT; purified PfCRT 7G8 reconstituted in proteoliposomes
The experiment in a line: […] [3H]CQ uptake in PfCRT proteoliposomes. It counts as biochemical.

The test system of test [4] is T4, Plasmodium falciparum TAD_022.
T4 construct: 3D7^0087/N9 (TAD_022)
In words: microbe, parasite or virus in culture. Details: species or system P. falciparum 3D7^0087/N9 in human red blood cells; asexual blood stage growth inhibition in 8% human serum medium, flow cytometry. The settings on record: Erythrocyte, 72 h; for IC50: read-out: IC50 ± SEM (nM); for IC90: read-out: IC90 ± SEM (nM). The method, then: Susceptibility to all drugs tested in this study was measured by incubating asynchronous, ABS parasites plated at 0.2% to 0.3% parasitemia (or 0.8% for the poorly growing ZY19489-resistant lines harboring the pfcrt N246H allele) and 1% hematocrit at 37 °C in 96-well plates. The assays were set up across a range of drug concentrations with two-fold dilutions. For the experiments testing for susceptibility of recrudescent parasite lines that emerged in humanized NSG mice to ZY19489, M5717, MMV693183, or ferroquine, parasites were cultured at 2% hematocrit in human O^+ or A^+ RBCs in RPMI-1640 media, supplemented with 25 mM HEPES (Fisher), 50 mg/L hypoxanthine (Sigma Aldrich), 2 mM L-glutamine (Cambridge Isotope Laboratories, Inc.), 0.21% sodium bicarbonate (Sigma Aldrich), 0.5% (w/v) Albumax (Invitrogen), 8% filtered, heat-inactivated, pooled off-the-clot AB^+ human serum (Interstate Blood Bank or New York Blood Center), and 10 μg/mL gentamicin (Fisher). The parental P. falciparum Pf3D7^0087/N9 strain that has been adapted to proliferate in this humanized NSG mouse model was cultured in parallel as the drug-sensitive control strain. All compound susceptibility assays for the recrudescent lines and parental control strain were performed using 8% serum-containing medium. Parasite growth in each well was assessed after 72 h using flow cytometry of cultures stained with SYBR Green I and MitoTracker Deep Red (Supplementary Fig. S12). IC50 and IC90 values were derived from growth inhibition data using nonlinear regression analysis (GraphPad Prism 7) or linear interpolation (assays for recrudescent lines from humanized mice). Unless otherwise stated, assays were performed on four independent occasions with technical duplicates, and statistical comparisons were made using two-tailed Mann–Whitney U tests. To assess potential cross-resistance between M5717 and ZY19489, we tested three M5717-resistant lines (TAD_470, TAD_462, and TAD_464), which harbored distinct PfeEF2 mutations (I183M, P754S, and I182T, respectively), for susceptibility to ZY19489.

Test [5] addresses T2, P. falciparum chloroquine resistance transporter (PfCRT), 7G8 + F145I isoform. The experiment in a line: inhibition of [3H]PPQ uptake in PfCRT proteoliposomes. The settings on record: read-out: % inhibition of [3H]PPQ transport at 1 μM. It counts as biochemical.

T2 sequence (W7FI62 whole entry F145I, canonical isoform): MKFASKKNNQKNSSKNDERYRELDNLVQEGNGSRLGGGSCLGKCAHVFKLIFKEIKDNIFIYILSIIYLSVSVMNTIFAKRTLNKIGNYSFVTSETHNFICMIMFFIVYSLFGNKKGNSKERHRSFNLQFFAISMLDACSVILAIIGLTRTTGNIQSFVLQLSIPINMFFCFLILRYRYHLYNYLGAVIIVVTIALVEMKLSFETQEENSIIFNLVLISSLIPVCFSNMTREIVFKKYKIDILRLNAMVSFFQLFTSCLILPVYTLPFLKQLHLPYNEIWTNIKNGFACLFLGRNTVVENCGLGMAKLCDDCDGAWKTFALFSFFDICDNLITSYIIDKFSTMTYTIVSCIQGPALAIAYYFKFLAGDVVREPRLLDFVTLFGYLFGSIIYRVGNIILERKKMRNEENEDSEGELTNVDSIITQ
T3 sequence (W7FI62 whole entry, canonical isoform): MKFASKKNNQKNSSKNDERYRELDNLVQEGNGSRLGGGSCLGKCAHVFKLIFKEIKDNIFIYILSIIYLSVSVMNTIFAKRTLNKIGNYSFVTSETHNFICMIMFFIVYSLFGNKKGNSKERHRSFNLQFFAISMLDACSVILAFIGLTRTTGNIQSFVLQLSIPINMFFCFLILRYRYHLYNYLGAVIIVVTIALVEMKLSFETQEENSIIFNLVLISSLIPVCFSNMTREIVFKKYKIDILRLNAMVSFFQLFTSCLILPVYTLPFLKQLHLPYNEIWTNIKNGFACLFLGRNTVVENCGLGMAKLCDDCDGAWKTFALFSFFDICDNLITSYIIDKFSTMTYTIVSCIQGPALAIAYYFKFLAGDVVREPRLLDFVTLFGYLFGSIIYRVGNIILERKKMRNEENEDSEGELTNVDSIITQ

What is called IC50 is the point on the concentration scale where inhibition reaches its midpoint. What is called IC90 is the concentration at which the effect reaches the 90% level. On to `O=C1C(O)=C([C@H]2CC[C@H](c3ccc(Cl)cc3)CC2)C(=O)c2ccccc21` [ATQ, atovaquone], for which the IC50 in test [1] (read-out: ATQ IC50) is 2.5 ± 0.4 nM. Also, the IC90 in test [1] (read-out: ATQ IC90) came out at 5.3 ± 0.7 nM.

In the case of `C[C@H]1[C@@H](O)O[C@@H]2O[C@@]3(C)CC[C@H]4[C@H](C)CC[C@@H]1[C@@]24OO3` [DHA, dihydroartemisinin], in test [1] (read-out: DHA IC50), the IC50 came to 2.6 ± 0.2 nM. The IC90 in test [1] (read-out: DHA IC90) amounted to 4.7 ± 0.6 nM.

For the molecule `Clc1ccc2c(N3CCN(CCCN4CCN(c5ccnc6cc(Cl)ccc56)CC4)CC3)ccnc2c1` [PPQ, piperaquine], the “100 nM [3H]PPQ uptake in PfCRT proteoliposomes” value in test [2] was “interference was also observed against [^3H]PPQ transport by the PPQ-resistant isoform 7G8 + F145I”. The IC50 in test [1] (read-out: PPQ IC50) is 12 ± 1 nM. In addition, in test [1] (read-out: PPQ IC90), the IC90 was found to be 22.3 ± 4.6 nM.

Take `O=C1CCC(N2C(=O)c3ccccc3C2=O)C(=O)N1` (stereo not drawn) [Thalidomide]: the IC50 in test [1] (read-out: IC50 (nM)) was 85200 ± 5060 nM. Besides, the IC90 in test [1] (read-out: IC90 (nM)) amounted to 115700 ± 1110 nM.

As to `COC(=O)[C@H](CCCN=C(NC(=O)OCOC(=O)Cc1ccccc1)NC(=O)OCOC(=O)Cc1ccccc1)NS(=O)(=O)c1ccc(C)cc1` [pro-TAME], the IC50 in test [1] (read-out: IC50) came to 58400 ± 7100 nM. Further, the IC90 in test [1] (read-out: IC90) was 91000 ± 11300 nM.

As for `CCN(CC)CCCC(C)Nc1ccnc2cc(Cl)ccc12` (stereo not drawn) [CQ, chloroquine], the “100 nM [3H]CQ uptake in PfCRT proteoliposomes” value in test [3] is “[^3H]CQ transport by the CQ-resistant 7G8 isoform”. Besides, the IC50 in test [1] (read-out: CQ IC50) was determined as 104 ± 5.7 nM; in test [1] (read-out: IC50 (nM)) it was 94.6 ± 6.6 nM. Besides, the values for the IC90 in test [1] (read-out: CQ IC90) and in test [1] (read-out: IC90 (nM)) were 217 ± 11.3 nM and 177 ± 24.1 nM, respectively.

Consider `O=C(NCCN1CCCC1)c1cc(-c2ccc(CN3CCOCC3)cc2)nc2ccc(F)cc12` [M5717], for which, in test [4], the IC50 stood at 0.4 ± 0.01 nM and the IC90 was found to be 0.8 ± 0.1 nM.

Take `COc1ccc(C2=N[C@@H](c3ccc(Cl)cc3)[C@@H](c3ccc(Cl)cc3)N2C(=O)N2CCNC(=O)C2)c(OC(C)C)c1` [Nutlin-3]: in test [1] (read-out: IC50 (nM)), the IC50 came to 5660 ± 511 nM. Further, the concentration for an effect of 90% (IC90) in test [1] (read-out: IC90 (nM)) turned out to be 9130 ± 714 nM.

In the case of `CCNCc1cc(Nc2ccnc3cc(Cl)ccc23)ccc1O` [DEAQ, mono-desethylamodiaquine], the IC50 in test [1] (read-out: DEAQ IC50) came out at 43.8 ± 5.9 nM. Further, the IC90 in test [1] (read-out: DEAQ IC90) was 78.7 ± 8.8 nM.

Turning to `CCCCN(CCCC)CC(O)c1cc(Cl)cc2c1-c1ccc(Cl)cc1/C2=C/c1ccc(Cl)cc1` (stereo not drawn) [LMF, lumefantrine], in test [1] (read-out: LMF IC50), the IC50 came out at 6 ± 1.2 nM. Further, the IC90 in test [1] (read-out: LMF IC90) is 11.2 ± 1.8 nM.

For orientation: inhibition means the percentage by which the read-out fell short of the control. For `Cc1nc(Nc2ncc(N3CCN(C)[C@H](C)C3)c(Nc3cc(C)n(C)n3)n2)cc(C2CC2)c1F` [ZY19489], in test [4], the IC50 amounted to 7.2 ± 0.9 nM and the IC90 amounted to 17.1 ± 1.1 nM. Further, in test [5], the inhibition at 1 µM amounted to 79%.
